The text below walks through data of patent publication US10471025B2, “Compositions for use in treating parkinson's disease and related disorders” (Technophage, Investigação E Desenvolvimento Em …, priority 2015, dated 2019).

For data set [1] the following is noted: in water; cited from earlier work.
In data set [2] the test system is 6-OHDA treated zebrafish larvae. Description: LD50 / lethality in the disease context of the zebrafish model.
The test system is the same in data set [3]. Nature of the data set: Rescue of Tyrosine hydroxylase (TH)-positive dopaminergic neurons in 6-OHDA zebrafish larvae. It is filed as in vivo. As to conditions: for Neurorescue: TH+ neurons at optimal dose, p; for Neuroprotective effect / recovery of TH+ neurons: at the optimal concentration of each molecule. As to the method:
The 7 candidates also were tested in terms of rescue of dopaminergic neurons positive for Tyrosine hydroxylase (Th) in the substancia nigra pars compacta of the test animals. […] Results were normalized for healthy control values (healthy control=100% of neurons). As a control, zebrafish were treated with only the vehicle, ascorbic acid. ‘6-OHDA_ represents results in zebrafish receiving no treatment.
FIGS. 6E-6G show representative Z-projections of confocal stacks of whole-mount anti-TH immunohistochemistry in 6 days post-fertilization (dpf) of zebrafish larvae (age of the fish) control (FIG. 6E), 6-OHDA (FIG. 6F), and tapentadol treated-larvae (FIG. 6G).

For data set [4] the following is noted: in vivo, cited from earlier work.
Data set [5] relates to 6-OHDA treated zebrafish larvae. Nature of the data set: Co-administration with L-Dopa, total distance 6-OHDA larvae move. As to conditions: total distance; L-Dopa 250 or 125 μM. It is filed as in vivo.
Data set [6] has the same test system. Description: Locomotor behavior rescue (total distance moved, number of jumps) in 6-OHDA zebrafish PD model. In kind it is in vivo. The settings on record: for Effective concentration / peak, small range plot: phenotype recovery, total distance moved; for Optimal concentration: behavioral experiments and TH+ cell counts. The source says:
To model Parkinson ̆s disease (PD), a neurotoxin 6-OHDA (6-hyroxydopamine) based method was used in zebrafish and in mice. In this model, 6-OHDA-lesions induce motor manifestations in zebrafish and in mice, such as reduced locomotor ability, and the loss of dopaminergic neurons. Based on the 6-OHDA PD zebrafish model, compounds from a small molecules library were screened for rescue of the parkinsonian phenotype (Example 1, see below).
The screen was based on both the recovery of impaired locomotor behavior and dopaminergic neuronal loss.
Values were normalized for the mean of disease state in each experiment (disease=1). Each plot contains data from 3 independent experiments with a total of 24 larvae. As a control, zebrafish were treated with only the vehicle, ascorbic acid.
For these experiments, Tubingen (TU) wild-type zebrafish, a specific strain of wild-type zebrafish, were used.

For data set [7] the following is noted: sc; cited from earlier work.
Data set [8] concerns rat. As to conditions: rat, cited from earlier work.
The test system of data set [9] is 6-OHDA mouse model. Nature of the data set: Cylinder test, 6-OHDA mice (Example 5). In kind it is in vivo. The arrangement: Cylinder test: number of right turns: dose or concentration left out as unconfirmed. The settings on record: for Cylinder test: number of rearings / Cylinder test: percentage of animals with tremor / Cylinder test: percentage of contralateral paw use: vs 6-OHDA group, daily i.p.

Data set [10] concerns 6-OHDA mouse model. Description: Open field test, 6-OHDA mice (Example 5). It is filed as in vivo. The settings on record: 9 days post lesion, vs 6-OHDA group. On the procedure: Open field testing evaluates mainly spontaneous activity. […] Four different parameters were recorded: maximum velocity (FIGS. 18A, 19A, and 20A), total distance moved (FIGS. 18B, 19B, and 20B), mean velocity (FIGS. 18C, 19C, and 20C), and latency to first reach the walls (FIGS. 18D, 19D, and 20D). All parameters were determined by the analysis of a 5 minute video, recorded 30 minutes after therapeutic administration. Values mean ě SEM (n=3-8).
For total distance moved (FIGS. 18B, 19B, and 20B) and mean velocity (FIGS. 18C, 19C, and 20C), an hour video also was analyzed for an animal per group, to evaluate the effect of the drug with time. For these analyses, a 5 minute video prior to therapeutic administration also was taken. […] Ethovision V10 system was used for making the videos for analysis.

Data set [11] deals with 6-OHDA treated zebrafish larvae. Description: Freezing (duration of freezing periods, light/dark stimulus) in 6-OHDA zebrafish larvae. In kind it is in vivo. The settings on record: for Duration of freezing periods, recovery vs 6-OHDA treated larvae: tapentadol 48.5, stavudine 50, nabumetone 0.91 μM, L-Dopa treatment. As to the method:
In the zebrafish model, the locomotor impairment was measured and related with bradykinesia in patients. Tests included evaluating ‘freezing_ in response to a light/dark stimulus. 6-OHDA induced larvae had fewer freezing episodes but spent longer periods in the frozen state. In previous studies, the duration of freezing episodes has been analyzed in PD patients. […] Nonetheless, it is an inhibitor of the neuronal dopamine transporter and since 6-OHDA needs DAT to enter the neuron and induce the disease, methylphenidate may be a false positive.
As FIGS. 9B-9C show, freezing recovery was tested using 7 candidate molecules at optimal concentrations, in an exemplary experiment with n=8 fish, and methylphenidate and amantadine at 25 ? M.

Data set [12] deals with 6-OHDA mouse model. Description: Abnormal involuntary movements, 6-OHDA mice (Example 5). In kind it is in vivo. As to conditions: mouse, in vivo. As to the method: This condition results in a range of involuntary movements that can be evaluated by video tracking analyses. […] Evaluations were performed during two independent trials, 30 and 90 minutes after treatment administration. […] Nonetheless, forelimb and orofacial involuntary movements are extremely hard to detect, and reading errors occur, considering the size of the animals. Total abnormal involuntary movements are the sum of all 4 different involuntary movements evaluated and is the parameter often reported in the literature.
As FIGS. 17A-17F show, abnormal involuntary movements were evaluated using the cylinder test 28 days post injection. […] Values mean ě SEM (n=5-8).

Data set [13] concerns mouse. The settings on record: mouse, in vivo, cited from earlier work.
For data set [14] the following is noted: cited from earlier work.
Data set [15] has as its system dogs. As to conditions: dog, in vivo, cited from earlier work.
Data set [16] has as its system 6-OHDA mouse model. Description: Rotarod test, unilateral striatal 6-OHDA mice (Example 5). It is filed as in vivo. The settings on record: daily i.p., dosages tested (C1 and C2). For orientation: The rotarod test checks motor coordination on a turning rod.
Data set [17] concerns CY P1A2, CY P2C9, CY P2C19, CY P2D6, and CY P3A4. The settings on record: cited from earlier work.
The conditions of data set [18]: 0.01 to 11.4 μg/mL; cited from earlier work.
Where [19] appears, read: 6-OHDA disease-induced zebrafish larvae.

“Also recorded” adds a separate entry of the source. Read-outs that look alike come from different tables or passages of the source.

For the compound `C#CCN[C@@H]1CCc2ccccc21` [Rasagiline], the Solubility in data set [1] was 53 mg/ml in. In addition, in [2] (setting [19]), the LD50 is 187.5 | M. Besides, in data set [3], the Neurorescue entry was “confirmed P < 0.11” and the “Neuroprotective effect / recovery of TH+ neurons” value (“Neuroprotective effect / recovery” for short) was “confirmed”. The Oral bioavailability in data set [4] (po) is listed as 35%. For the same compound, the Half-life in data set [4] is 1.5 to 3.5 h. The “Effect of co-administration with L-Dopa on locomotor recovery” value in [5] was “increased effect”. In data set [6], the “Effective concentration / peak, small range plot” value came out at 25 µM. For the same compound, in data set [7], the Effective rat dose is recorded as 0.8 mg/kg/day. Moreover, the LD50 in data set [8] was 300 mg/kg.
Turning to `N[C@@H](Cc1ccc(O)c(O)c1)C(=O)O` [L-Dopa, Levodopa], in data set [9], the “Cylinder test: number of rearings” value is given as “no difference”, the “Cylinder test: percentage of animals with tremor” value is on record as “motor recovery was observed” and the “Cylinder test: percentage of contralateral paw use” value is “motor recovery was observed”. Further, the Solubility in data set [1] is on record as 3.3 mg/ml in. In data set [2] (setting [19]), the LD50 is recorded as >5 mM. Further, in data set [3], the Neurorescue result was “no” and the “Neuroprotective effect / recovery” value is reported as “does not induce the recovery of TH+ neurons”. For the same compound, the “Neuroprotection of TH+ neurons” value in [3] (where the disease is less severe (sig *), preliminary) is “can be neuroprotective”. Moreover, in data set [10], the “Open field: latency to first reach the walls” value is recorded as “did not show motor improvement”. In data set [6], the Optimal concentration was 250 µM and the “Effective concentration / peak, small range plot” value was 100 µM. For the same compound, the “Duration of freezing periods, recovery vs 6-OHDA treated larvae” value in data set [11] is reported as “no recovery”. Further, the “Induction of abnormal involuntary movements” value in data set [12] was “induced these involuntary movements”. In addition, the LD50 in [8] (in vivo, po) is on record as 1780 mg/kg.
`Cc1cn([C@H]2C=C[C@@H](CO)O2)c(=O)[nH]c1=O` [stavudine]: the LD50 in data set [13] (iv) is 1,000 mg/kg; in data set [13] (po), 1,000 mg/kg; in data set [15] (iv), 1,680 mg/kg; in data set [15] (po), 2,000 mg/kg; in data set [2] (setting [19]), >10 mM; in data set [2] (6-OHDA zebrafish larvae), > 10,000 μM. Also, the LD50 in data set [8] (in vivo, iv) is 1,200 mg/kg; in [8] (in vivo, po), 4,000 mg/kg; in data set [8], 4000 mg/kg (rat). Also, the Clearance in [14] (HIV-infected adult and pediatric patients, 1-hour IV infusion) is 594 ± 164 mL/min. In addition, the “Accumulation with repeated administration” value in data set [14] (every 6, 8, or 12 hours) was “no significant accumulation”. Besides, in data set [14] (healthy subjects receiving 80 mg PO), the Renal clearance is 272 mL/min. For the same compound, in data set [14] (humans, regardless of the route), the “Renal elimination, share of the overall clearance” value was “about 40%”. Further, the Half-life in [14] (in adults) is 0.8 to 1.5 h. In addition, the “Time of peak plasma concentrations after dosing” value in [14] (oral administration) was ≤ 1 h. Also, the “Cylinder test: number of right turns” value in [9] (parameter disregarded) was “phenotypic recovery in a very similar way to L-Dopa”. For the same compound, the “Cylinder test: number of rearings” value in [9] is reported as “did not show recovery”. For the same compound, the “Cylinder test: percentage of animals with tremor” value in [9] was “did not show recovery”. In addition, the “Cylinder test: percentage of contralateral paw use” value in data set [9] is “did not show recovery”. The “Rotarod: latency to fall and speed, recovery” value in data set [16] is “did not have an effect”. The Neurorescue result in data set [3] is given as “confirmed p < 0.09”. Moreover, the “Neuroprotective effect / recovery” value in [3] was “confirmed”. Further, the “Effect of co-administration with L-Dopa on locomotor recovery” value in data set [5] is listed as “not affected; also recorded: least effective; also recorded: not influenced”. In data set [6] (6-OHDA zebrafish larvae), this compound gave a Therapeutic window of 50 to 70 µM. Further, the Optimal concentration in data set [6] came to 50 µM. The “Number of jumps: concentration validated as recovering the 6-OHDA induced behavior” value in data set [6] (zebrafish, in vivo) was determined as 50 µM. Also, the “Total distance travelled, difference between treated larvae and disease control” value in data set [6] (zebrafish, in vivo) was found to be 400 mm. For the same compound, the Freezing recovery result in data set [11] (optimal concentrations, methylphenidate 25 μM) is on record as “positive results; also recorded: reverted freezing”. Besides, the “Duration of freezing periods, recovery vs 6-OHDA treated larvae” value in [11] is recorded as “recovered”. The “Inhibition of major cytochrome P450 isoforms” value in data set [17] is reported as “not considered to inhibit”. In addition, the “Induction of abnormal involuntary movements” value in data set [12] was “None of the treatments, tapentadol or stavudine of the combination, induced involuntary movements”. Also, the Protein binding result in data set [18] is listed as “negligible”.
